Experimental data reported in patent US11746111B2, “Siderophore conjugated pyrazolidinones, and analogues thereof” (YALE UNIVERSITY, priority 2018, dated 2023).
Converted amounts (≈) assume the structure as drawn. Like-named read-outs stand apart in the source and are kept apart here.

What was measured:
[1] = system: K. pneumoniae clinical isolates; test: Microdilution broth MIC, K. pneumoniae clinical isolates (Table 1); assay type: cell-based; conditions: Klebsiella pneumoniae
Protocol: (§1) Microdilution Broth Minimum Inhibitory Concentrations (MICs)
(§2) MICs were performed in triplicate in cation adjusted Mueller-Hinton (MH) broth 30 according to CLSI guidelines. Firstly, overnight cultures of E. coli and K. pneumoniae clinical isolates were inoculated into 5 ml MH broth to OD600=0.1 and grown to OD600=0.224 (approximately 1-2×10^8 CFU/ml). These cultures were diluted (3 μl+4997 μl MH) and 100 μl inoculated into each well of a 96-well plate containing 100 μl of serial dilutions of compound 26 (YU253434), ampicillin, ceftazidime, or imipenem. The plates were placed in a 37° C. incubator for 18-20 hours and wells checked for growth.

[2] = system: E. coli clinical isolates; test: Microdilution broth MIC, E. coli clinical isolates (Table 1); assay type: cell-based; conditions: Escherichia coli
Protocol: as §1, §2

[3] = K. pneumoniae KB390 Quale, TEM-30, TEM-1, KPC-2, SHV-12, read-out: MIC
[4] = K. pneumoniae LC56, CTX-M-1 grp(15), read-out: MIC
[5] = K. pneumoniae LC102, SHV-1 (WT + 238S), read-out: MIC
[6] = K. pneumoniae Rush23, CTX-M-9 group, read-out: MIC
[7] = K. pneumoniae VA-184, KPC-2, SHV-11, SHV-12, read-out: MIC
[8] = K. pneumoniae VA-267, KPC-3, TEM-1, SHV-11, SHV-12, read-out: MIC
[9] = K. pneumoniae VA-357, KPC-2, SHV-11, read-out: MIC
[10] = K. pneumoniae VA-368, KPC-2, TEM-1, SHV-5, SHV-68, read-out: MIC
[11] = K. pneumoniae VA-384, KPC-2, TEM-1, SHV-11, SHV-12, SHV-14, read-out: MIC
[12] = K. pneumoniae VA-391, KPC-3, TEM-1, SHV-11, SHV-12, SHV-77, read-out: MIC
[13] = K. pneumoniae VA-398, KPC-3, TEM-1, SHV-11, SHV-12, SHV-27, read-out: MIC
[14] = K. pneumoniae VA-400, KPC-2, TEM-1, SHV-11, SHV-12, read-out: MIC
[15] = K. pneumoniae VA-406, KPC-2, TEM-1, SHV-11, SHV-12, read-out: MIC
[16] = K. pneumoniae VA-410, KPC-3, TEM-1, SHV-11, read-out: MIC
[17] = E. coli 35218, TEM-1, read-out: MIC
[18] = E. coli LC12, CTX-M-1 grp(15), read-out: MIC
[19] = E. coli LC15, CTX-M-9 group, CTX-M-1 grp(15)
[20] = E. coli LC38, CTX-M-1 grp(15), PB AmpC (ACT/MIR)
[21] = E. coli LC41, TEM (238S), PB AmpC (ACT/MIR), CTX-M-1 grp(15)
[22] = E. coli LC77, TEM, KPC, read-out: MIC
[23] = E. coli LC81, SHV (238S + 240K), read-out: MIC
[24] = E. coli LC91, CTX-M-1 grp(15), CMY (group II), read-out: MIC
[25] = E. coli LC98, CMY (group II), read-out: MIC
[26] = E. coli LC109, CTX-M-9 group, CMY (group II)
[27] = E. coli LC111, TEM (164S), read-out: MIC
[28] = E. coli LC136, SHV (WT + 238S), read-out: MIC
[29] = K. pneumoniae 7000063, β-lactamase SHV-18, read-out: MIC
[30] = K. pneumoniae LC40, CTX-M-1 grp(15), TEM (164S), read-out: MIC
[31] = K. pneumoniae LC121, SHV-1 (WT + 238S + 240K), read-out: MIC
[32] = BAA202, E. coli BAA-202, SHV-1, read-out: MIC
[33] = E. coli Rush24, CMY (group II), read-out: MIC

CC1(C)S[C@@H]2[C@H](NC(=O)[C@H](N)c3ccccc3)C(=O)N2[C@H]1C(=O)O [Ampicillin]
MIC ([1]; K. pneumoniae 7000063, β-lactamase SHV-18): 1020 µg/mL (≈ 2930 µM)
MIC [1, 3]: > 2050 µg/mL
MIC ([1]; K. pneumoniae LC40, CTX-M-1 grp(15), TEM (164S)): 512 µg/mL (≈ 1470 µM)
MIC [1, 4]: > 2050 µg/mL
MIC [1, 5]: > 2050 µg/mL
MIC ([1]; K. pneumoniae LC121, SHV-1 (WT + 238S + 240K)): 1020 µg/mL
MIC [1, 6]: > 2050 µg/mL
MIC [1, 7]: > 2050 µg/mL
MIC [1, 8]: > 2050 µg/mL
MIC [1, 9]: > 2050 µg/mL
MIC [1, 10]: > 2050 µg/mL
MIC [1, 11]: > 2050 µg/mL
MIC [1, 12]: > 2050 µg/mL
MIC [1, 13]: > 2050 µg/mL
MIC [1, 14]: > 2050 µg/mL
MIC [1, 15]: > 2050 µg/mL
MIC [1, 16]: > 2050 µg/mL
MIC ([2]; BAA202, E. coli BAA-202, SHV-1): > 2050 µg/mL
MIC [2, 17]: 256 µg/mL (≈ 733 µM)
MIC ([2]; E. coli LC4, TEM, SHV-12): > 2050 µg/mL
MIC [2, 18]: 2050 µg/mL (≈ 5860 µM)
MIC [2, 19]: 1020 µg/mL (≈ 2930 µM)
MIC ([2]; E. coli LC33, CTX-M-9 group): 512 µg/mL (≈ 1470 µM)
MIC [2, 20]: 512 µg/mL (≈ 1470 µM)
MIC [2, 21]: 512 µg/mL (≈ 1470 µM)
MIC [2, 22]: 2050 µg/mL (≈ 5860 µM)
MIC [2, 23]: 2050 µg/mL
MIC [2, 24]: 2050 µg/mL (≈ 5860 µM)
MIC [2, 25]: 2050 µg/mL (≈ 5860 µM)
MIC [2, 26]: 1020 µg/mL (≈ 2930 µM)
MIC [2, 27]: 1020 µg/mL (≈ 2930 µM)
MIC [2, 28]: 512 µg/mL
MIC ([2]; E. coli Rush24, CMY (group II)): > 2050 µg/mL

CC(C)(O/N=C(\C(=O)N[C@@H]1C(=O)N2C(C(=O)[O-])=C(C[n+]3ccccc3)CS[C@H]12)c1csc(N)n1)C(=O)O [Ceftazidime]
MIC [1, 29]: 16 µg/mL (≈ 29.3 µM)
MIC ([1]; K. pneumoniae KB390 Quale, TEM-30, TEM-1, KPC-2, SHV-12): 512 µg/mL (≈ 937 µM)
MIC [1, 30]: < 1 µg/mL
MIC [1, 4]: 16 µg/mL (≈ 29.3 µM)
MIC [1, 5]: 4 µg/mL
MIC [1, 31]: 16 µg/mL
MIC [1, 6]: 2 µg/mL (≈ 3.66 µM)
MIC ([1]; K. pneumoniae VA-184, KPC-2, SHV-11, SHV-12): 256 µg/mL (≈ 468 µM)
MIC ([1]; K. pneumoniae VA-267, KPC-3, TEM-1, SHV-11, SHV-12): 512 µg/mL (≈ 937 µM)
MIC ([1]; K. pneumoniae VA-357, KPC-2, SHV-11): 128 µg/mL (≈ 234 µM)
MIC [1, 10]: 16 µg/mL (≈ 29.3 µM)
MIC ([1]; K. pneumoniae VA-384, KPC-2, TEM-1, SHV-11, SHV-12, SHV-14): 256 µg/mL (≈ 468 µM)
MIC ([1]; K. pneumoniae VA-391, KPC-3, TEM-1, SHV-11, SHV-12, SHV-77): 256 µg/mL (≈ 468 µM)
MIC [1, 13]: 32 µg/mL (≈ 58.5 µM)
MIC ([1]; K. pneumoniae VA-400, KPC-2, TEM-1, SHV-11, SHV-12): 256 µg/mL (≈ 468 µM)
MIC ([1]; K. pneumoniae VA-406, KPC-2, TEM-1, SHV-11, SHV-12): 256 µg/mL (≈ 468 µM)
MIC ([1]; K. pneumoniae VA-410, KPC-3, TEM-1, SHV-11): 128 µg/mL (≈ 234 µM)
MIC [2, 32]: 16 µg/mL (≈ 29.3 µM)
MIC [2, 17]: < 1 µg/mL
MIC ([2]; E. coli LC4, TEM, SHV-12): 256 µg/mL (≈ 468 µM)
MIC [2, 18]: > 1020 µg/mL
MIC ([2]; E. coli LC15, CTX-M-9 group, CTX-M-1 grp(15), read-out: MIC): < 1 µg/mL
MIC ([2]; E. coli LC33, CTX-M-9 group, read-out: MIC): 4 µg/mL (≈ 7.32 µM)
MIC ([2]; E. coli LC38, CTX-M-1 grp(15), PB AmpC (ACT/MIR), read-out: MIC): < 1 µg/mL
MIC ([2]; E. coli LC41, TEM (238S), PB AmpC (ACT/MIR), CTX-M-1 grp(15), read-out: MIC): < 1 µg/mL
MIC [2, 22]: 16 µg/mL (≈ 29.3 µM)
MIC [2, 23]: 128 µg/mL
MIC [2, 24]: 16 µg/mL (≈ 29.3 µM)
MIC [2, 25]: 256 µg/mL (≈ 468 µM)
MIC ([2]; E. coli LC109, CTX-M-9 group, CMY (group II), read-out: MIC): 32 µg/mL (≈ 58.5 µM)
MIC [2, 27]: 2 µg/mL (≈ 3.66 µM)
MIC [2, 28]: < 1 µg/mL
MIC [2, 33]: 256 µg/mL (≈ 468 µM)

C[C@@H](O)[C@H]1C(=O)N2C(C(=O)O)=C(SCCN=CN)C[C@H]12 [Imipenem]
MIC [1, 29]: < 0.125 µg/mL
MIC [1, 3]: 4 µg/mL (≈ 13.4 µM)
MIC [1, 30]: 0.25 µg/mL (≈ 0.835 µM)
MIC [1, 4]: 0.5 µg/mL (≈ 1.67 µM)
MIC [1, 5]: < 0.125 µg/mL
MIC [1, 31]: < 0.125 µg/mL
MIC [1, 6]: < 0.125 µg/mL
MIC [1, 7]: 8 µg/mL (≈ 26.7 µM)
MIC [1, 8]: 4 µg/mL (≈ 13.4 µM)
MIC [1, 9]: 8 µg/mL (≈ 26.7 µM)
MIC [1, 10]: 1 µg/mL (≈ 3.34 µM)
MIC [1, 11]: 32 µg/mL (≈ 107 µM)
MIC [1, 12]: 4 µg/mL (≈ 13.4 µM)
MIC [1, 13]: 1 µg/mL (≈ 3.34 µM)
MIC [1, 14]: 4 µg/mL (≈ 13.4 µM)
MIC [1, 15]: > 128 µg/mL
MIC [1, 16]: 2 µg/mL (≈ 6.68 µM)
MIC [2, 32]: 0.25 µg/mL (≈ 0.835 µM)
MIC ([2]; E. coli 35218, TEM-1): < 0.125 µg/mL
MIC ([2]; E. coli LC4, TEM, SHV-12): < 0.125 µg/mL
MIC ([2]; E. coli LC12, CTX-M-1 grp(15)): 128 µg/mL (≈ 428 µM)
MIC [2, 19]: < 0.125 µg/mL
MIC ([2]; E. coli LC33, CTX-M-9 group): < 0.125 µg/mL
MIC [2, 20]: < 0.125 µg/mL
MIC [2, 21]: < 0.125 µg/mL
MIC [2, 22]: 2 µg/mL (≈ 6.68 µM)
MIC [2, 23]: < 0.125 µg/mL
MIC ([2]; E. coli LC91, CTX-M-1 grp(15), CMY (group II)): < 0.125 µg/mL
MIC [2, 25]: < 0.125 µg/mL
MIC [2, 26]: < 0.125 µg/mL
MIC [2, 27]: < 0.125 µg/mL
MIC [2, 28]: < 0.125 µg/mL
MIC [2, 33]: 0.25 µg/mL (≈ 0.835 µM)
